Source: ChEMBL document CHEMBL1201862, “PubChem BioAssay data set” (2004)
Active and inactive are the calls of the source.

Columns and labels:
Cytochrome P450 1A2 = target: T1, Cytochrome P450 1A2 (Homo sapiens, UniProt P05177);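 also: PubChem cytochrome P450 panel assay, CYP1A2 panel member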
T1 sequence (P05177 whole entry): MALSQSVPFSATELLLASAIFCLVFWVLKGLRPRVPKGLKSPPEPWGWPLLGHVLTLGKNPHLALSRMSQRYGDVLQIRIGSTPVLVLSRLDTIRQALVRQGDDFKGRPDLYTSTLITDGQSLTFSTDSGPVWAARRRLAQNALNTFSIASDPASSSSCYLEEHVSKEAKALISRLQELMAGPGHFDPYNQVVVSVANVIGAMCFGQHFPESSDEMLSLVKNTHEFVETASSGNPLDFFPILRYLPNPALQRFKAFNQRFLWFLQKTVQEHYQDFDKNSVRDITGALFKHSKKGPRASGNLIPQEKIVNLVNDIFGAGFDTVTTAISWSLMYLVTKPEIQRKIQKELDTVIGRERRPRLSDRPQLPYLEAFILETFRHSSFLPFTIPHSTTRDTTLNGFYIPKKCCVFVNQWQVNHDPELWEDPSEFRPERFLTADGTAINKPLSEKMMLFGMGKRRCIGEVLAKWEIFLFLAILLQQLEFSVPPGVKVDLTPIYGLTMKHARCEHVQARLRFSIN

Cytochrome P450 3A4 = Cytochrome P450 3A4 (Homo sapiens, UniProt P08684);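 also: CYP3A4 tested as one member of a cytochrome P450 panel screen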
Cytochrome P450 3A4, sequence (P08684 whole entry): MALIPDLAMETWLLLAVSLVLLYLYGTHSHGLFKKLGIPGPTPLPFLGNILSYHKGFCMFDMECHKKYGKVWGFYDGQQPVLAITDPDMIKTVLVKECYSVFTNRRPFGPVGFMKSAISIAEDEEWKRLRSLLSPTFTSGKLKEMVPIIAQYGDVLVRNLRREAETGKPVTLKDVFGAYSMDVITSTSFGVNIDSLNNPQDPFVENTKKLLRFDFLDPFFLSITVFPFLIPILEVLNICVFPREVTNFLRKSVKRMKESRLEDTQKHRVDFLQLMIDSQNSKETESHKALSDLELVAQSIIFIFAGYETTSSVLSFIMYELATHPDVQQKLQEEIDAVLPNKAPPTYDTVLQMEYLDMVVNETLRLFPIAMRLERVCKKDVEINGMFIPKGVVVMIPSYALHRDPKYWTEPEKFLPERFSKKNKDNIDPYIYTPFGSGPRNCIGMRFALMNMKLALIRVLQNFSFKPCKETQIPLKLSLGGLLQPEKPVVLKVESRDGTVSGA

Streptococcus = test: Group A Streptococcus viability loss, dose response, counter-screen for streptokinase expression inhibitor project, luminescence, BacTiterGlo (AID 1915); type: functional, organism-based;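 also: potency for reduction of bacterial viability or growth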
[1] = tested on: Streptococcus sp. 'group A'; test: growth inhibition of control SK(-) GAS strain, dose response, counter-screen for streptokinase expression inhibitor project, luminescence, kanamycin, BacTiterGlo, confirmation (AID 1900); type: functional, organism-based
Cytochrome P450 2C9 = Cytochrome P450 2C9 (Homo sapiens, UniProt P11712)
Cytochrome P450 2C9, sequence (P11712 whole entry): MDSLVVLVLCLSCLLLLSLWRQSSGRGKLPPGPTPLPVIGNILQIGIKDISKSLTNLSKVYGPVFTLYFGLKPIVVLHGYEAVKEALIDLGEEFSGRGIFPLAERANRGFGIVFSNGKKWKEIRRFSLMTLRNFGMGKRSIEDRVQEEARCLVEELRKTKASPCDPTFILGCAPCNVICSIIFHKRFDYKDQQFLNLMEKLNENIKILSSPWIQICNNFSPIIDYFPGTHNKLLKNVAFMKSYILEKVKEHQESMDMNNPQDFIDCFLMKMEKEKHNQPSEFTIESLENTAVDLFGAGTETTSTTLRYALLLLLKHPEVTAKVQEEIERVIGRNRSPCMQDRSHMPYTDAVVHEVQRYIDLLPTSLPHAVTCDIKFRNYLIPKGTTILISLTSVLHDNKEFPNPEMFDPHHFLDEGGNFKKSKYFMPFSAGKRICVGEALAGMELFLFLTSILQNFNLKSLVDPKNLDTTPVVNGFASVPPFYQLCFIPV

Cytochrome P450 2D6 = Cytochrome P450 2D6 (Homo sapiens, UniProt P10635);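 also: CYP2D6 member of a cytochrome P450 panel assay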
Cytochrome P450 2D6, sequence (P10635 whole entry): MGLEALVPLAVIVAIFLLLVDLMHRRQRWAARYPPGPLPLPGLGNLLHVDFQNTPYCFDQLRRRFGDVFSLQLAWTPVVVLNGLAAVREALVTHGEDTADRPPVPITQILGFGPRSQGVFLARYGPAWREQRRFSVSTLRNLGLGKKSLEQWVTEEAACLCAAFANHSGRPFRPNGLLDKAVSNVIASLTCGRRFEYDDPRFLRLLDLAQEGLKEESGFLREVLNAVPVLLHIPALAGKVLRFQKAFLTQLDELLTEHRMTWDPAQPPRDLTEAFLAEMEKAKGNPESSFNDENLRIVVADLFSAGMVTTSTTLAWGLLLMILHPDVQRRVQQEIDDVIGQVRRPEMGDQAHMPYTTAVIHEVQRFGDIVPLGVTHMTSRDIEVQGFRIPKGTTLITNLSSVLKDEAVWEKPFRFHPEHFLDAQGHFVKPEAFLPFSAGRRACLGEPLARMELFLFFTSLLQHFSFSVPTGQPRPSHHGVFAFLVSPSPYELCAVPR

[2] = cytotoxicity toward NIH3T3 fibroblasts, dose response, counter-screen, cell-based, ATP luminescence, mouse fibroblasts (AID 2010); type: functional;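 also: cells exposed to compound for about 90 hours before reading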
[3] = inhibitors of intracellular T. cruzi replication, confirmation, NIH3T3 host cells, beta-gal luminescence (AID 2044); type: functional, cell-based;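 also: intracellular parasites grown in NIH/3T3 mouse fibroblasts as host cells; luminescent beta-galactosidase reporter signal from transgenic T. cruzi replicating inside host cells; inhibitors lower the luminescence signal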

CO/C(O)=C1\C(C)=NC(C)=C([N+](=O)[O-])[C@@H]1c1ccccc1C(F)(F)F
AC50 (Cytochrome P450 1A2): 39.8 µM (inconclusive)

CC(C)COP(=O)(OCC(C)C)C(O)c1ccccc1F (configuration not stated)
AC50 (Cytochrome P450 3A4): 3.98 µM (inconclusive)

Cc1cc(COC(=O)C2N3C(=O)[C@@H](NC(=O)COc4ccccc4)[C@H]3SC2(C)C)on1 (some centres not stated)
EC50 (Streptococcus): 0.384 µM (active)
EC50 [1]: 0.175 µM (active)

CCNc1ncc2nc(-c3cc(F)cc(F)c3)c(=O)n(CCC#N)c2n1
AC50 (Cytochrome P450 1A2): 0.794 µM (inconclusive)

COc1ccc2[nH]cc(CCNc3ccnc(-c4ccccc4C)n3)c2c1
AC50 (Cytochrome P450 2C9): 1.26 µM (inconclusive)

O=[N+]([O-])c1cc(Cc2cc([N+](=O)[O-])c3cccnc3c2O)c(O)c2ncccc12
AC50 (Cytochrome P450 2D6): 3.98 µM (inconclusive)
AC50 (Cytochrome P450 2C9): 5.01 µM (inconclusive)

CN(C)c1nc2c(c(=O)[nH]c(=O)n2C)n1Cc1ccccc1Br
AC50 (Cytochrome P450 2D6): 25.1 µM (inconclusive)
AC50 (Cytochrome P450 2C9): 0.0708 µM (inconclusive)
AC50 (Cytochrome P450 1A2): 28.2 µM (inconclusive)

CN(Cc1ccco1)c1ncnc2ccc(-c3ccccc3Cl)cc12
AC50 (Cytochrome P450 2C9): 1.58 µM (inconclusive)

c1ccc2c([C@@H]3CCN(CCN4CCOCC4)C3)c[nH]c2c1
AC50 (Cytochrome P450 2D6): 3.98 µM (inconclusive)

O=C(CSc1nnc(Cc2cc(O)nc(O)n2)n1-c1ccccc1)N1CCCc2ccccc21
AC50 (Cytochrome P450 3A4): 15.8 µM (inconclusive)

CCO[C@@H]1OC(C(=O)N2CCN(Cc3ccc4c(c3)OCO4)CC2)=C[C@H](C2CCCCC2)[C@H]1CCCO
EC50 [2]: > 60 µM (not active)
EC50 [3]: 1.01 µM (active)

CC(=O)OCCNC(=O)c1cccnc1
AC50 (Cytochrome P450 3A4): 20 µM (inconclusive)
AC50 (Cytochrome P450 1A2): 31.6 µM (inconclusive)

C[C@@H]1C[C@H](C)CN(S(=O)(=O)c2cc(Cl)c(Oc3ccc([N+](=O)[O-])cc3Cl)c(Cl)c2)C1
AC50 (Cytochrome P450 2C9): 6.31 µM (inconclusive)

COc1ccc2[nH]c(C)c(CCN(Cc3cccs3)C(S)=Nc3ccccc3OC)c2c1
EC50 [2]: > 60 µM (not active)
EC50 [3]: 2.08 µM (active)

CCCN1CN=C(S)N(c2cccc(C)c2C)C1
AC50 (Cytochrome P450 3A4): 15.8 µM (inconclusive)

CC(C(=O)Nc1ccccc1Sc1ccccc1)N(c1ccccc1)S(C)(=O)=O (configuration not stated)
AC50 (Cytochrome P450 2D6): 25.1 µM (inconclusive)

COc1ccc(-c2nc3cnc(N4CCOCC4)nc3n(Cc3cccs3)c2=O)cc1
AC50 (Cytochrome P450 1A2): 2.51 µM (inconclusive)

C#CCCCC(=O)Nc1ccccc1
AC50 (Cytochrome P450 3A4): 25.1 µM (inconclusive)
AC50 (Cytochrome P450 1A2): 20 µM (inconclusive)

Cc1ccc(NC(=O)C2CCN(c3cnccn3)CC2)cc1C
EC50 [2]: > 60 µM (not active)
EC50 [3]: 1.55 µM (active)

Cc1nc(O)c2nsc(C(=O)Nc3ccc(N4CCCC(O)C4)cc3)c2n1 (configuration not stated)
EC50 (Streptococcus): > 150 µM (not active)
EC50 [1]: 3.32 µM (active)

COC(=O)[C@@]1(Cc2ccc(OC)cc2)[C@H]2c3cc(C(=O)N(C)C)n(CCc4ccc(OC)c(Br)c4)c3C[C@H]2CN1C(=O)c1ccccc1
AC50 (Cytochrome P450 2D6): 0.0501 µM (inconclusive)

CCc1ccccc1NC(=O)C(C)n1nc([N+](=O)[O-])c(Br)c1C (configuration not stated)
AC50 (Cytochrome P450 1A2): 28.2 µM (inconclusive)

CCC(=O)NCc1c(Cl)cccc1-n1cccc1
AC50 (Cytochrome P450 3A4): 25.1 µM (inconclusive)
AC50 (Cytochrome P450 2D6): 15.8 µM (inconclusive)
AC50 (Cytochrome P450 2C9): 15.8 µM (inconclusive)

CCn1cc(CN2CCCC(C(=O)c3ccc(-c4ccccc4)c(F)c3)C2)cn1 (configuration not stated)
EC50 [2]: > 60 µM (not active)
EC50 [3]: 0.569 µM (active)

Cn1c(C(=O)O)c(CC(=O)NCc2cccnc2)c2ccccc21
AC50 (Cytochrome P450 1A2): 10 µM (inconclusive)

Cc1ccc(-n2nnnc2SCC(=O)c2cc(C)n(CC3CCCO3)c2C)cc1 (configuration not stated)
EC50 [2]: > 30 µM (not active)
EC50 [3]: 0.479 µM (active)

CCCCn1c(SCc2c(C)noc2C)nc2cc(S(N)(=O)=O)ccc21
AC50 (Cytochrome P450 1A2): 6.31 µM (inconclusive)

C=CCc1cccc(C2Nc3ccccc3C(=O)N2O)c1O (configuration not stated)
AC50 (Cytochrome P450 2D6): 0.355 µM (inconclusive)
